One assay deals with Aβ42. Nature of the assay: In vivo efficacy B-1b: brain soluble Aβ42, MSD electrochemiluminescence multiplex. The settings on record: mouse brain soluble fraction, dose 30 mg/kg oral dosing, 4 h after dose; untreated control set at 100; read-out: Aβ42 (% vs Ctrl)_Mean.
Another assay relates to Aβ38. Nature of the assay: In vivo efficacy B-2b: brain soluble Aβ38, MSD electrochemiluminescence multiplex. As to conditions: mouse brain soluble fraction, dose 30 mg/kg oral dosing, 4 h after dose; untreated control set at 100; read-out: Aβ38 (% vs Ctrl)_Mean.
In a further assay the test system is Aβ40. Nature of the assay: In vivo efficacy B-1b/B-2b: brain soluble Aβ40, MSD electrochemiluminescence multiplex. As to conditions: mouse brain soluble fraction, dose 30 mg/kg oral dosing, 4 h after dose; untreated control set at 100; read-out: Aβ40 (% vs Ctrl)_Mean.

On to `COc1c(C#N)ccc2[nH]c(-c3cn4c(n3)C(c3ccc(F)cc3C)OCC4)cc12` (stereo not drawn) [Compound 47, 2-[8-(4-fluoro-2-methylphenyl)-5,6-dihydro-8H-imidazo[2,1-c][1,4]oxazin-2-yl]-4-methoxy-1H-indole-5-carbonitrile], for which the response vs control in vivo at 30 mg/kg is 55% in the assay with Aβ42, 222% with Aβ38 and 56% in the assay on Aβ40.

Regarding `COc1c(C#N)ccc2[nH]c(-c3nc4n(n3)CCOC4c3c(F)cccc3Cl)cc12` (single isomer, unassigned) [Compound 117, 2-[8-(2-chloro-6-fluorophenyl)-5,6-dihydro-8H-[1,2,4]triazolo[5,1-c][1,4]oxazin-2-yl]-4-methoxy-1H-indole-5-carbonitrile], the response vs control in vivo at 30 mg/kg with Aβ42 was found to be 79%; in the assay with Aβ38, 147%; in the assay with Aβ40 it was 112%.

On to `Cc1cn(-c2ccc3[nH]c(-c4nc5n(n4)CCCC5c4ccc(F)cc4C)nc3c2)cn1` (stereo not drawn) [Compound 176, 8-(4-fluoro-2-methylphenyl)-5,6,7,8-tetrahydro-2-[5-(4-methyl-1H-imidazol-1-yl)-1H-benzimidazol-2-yl]-[1,2,4]triazolo[1,5-a]pyridine], for which the results for the response vs control in vivo at 30 mg/kg in the assay with Aβ42, in the assay on Aβ38 and in the assay with Aβ40 were 103%, 126% and 111%, respectively.

As to `COc1c(C#N)ccc2[nH]c(-c3nc4n(n3)CCOC4c3ccccc3C(F)(F)F)cc12` (stereo not drawn) [Compound 55, 2-[5,6-dihydro-8-[2-(trifluoromethyl)phenyl]-8H-[1,2,4]triazolo[5,1-c][1,4]oxazin-2-yl]-4-methoxy-1H-indole-5-carbonitrile], the response vs control in vivo at 30 mg/kg in the assay on Aβ42 turned out to be 68%; in the assay on Aβ38 it was 148%; in the assay with Aβ40, 94%.

These data come from patent publication US9115143B2, “Substituted indole derivatives as gamma secretase modulators” (Janssen Pharmaceuticals, Inc., priority 2011, dated 2015).
